Assays:
[1] = Stability at milling and pressing under normal storage conditions; type: physicochemical
[2] = Release of the active substance in water (USP 24); type: physicochemical; conditions: for Released torasemide: water, USP 24, 37° C., 50 rpm, 1000 ml
Procedure: This makes the novel polymorph V of torasemide suitable for the preparation of pharmaceutical preparations having immediate or prolonged action. The novel polymorph V of torasemide obtained according to Example 1 of the present invention was subjected to testing the release of the active substance in water at the temperature of 37° C. [table]

Stability of the crystal form (no transformation into modifications I, II, III or amorphous) [1]: stable at milling and pressing | Release in comparison with the release profile of known crystalline torasemide modifications ([2]; in water (USP 24), same medium): slower release | Released torasemide ([2]; time 0 min): 0% | Released torasemide ([2]; time 15 min): 11.3% | Released torasemide ([2]; time 30 min): 20.5% | Released torasemide ([2]; time 45 min): 26.0% | Released torasemide ([2]; time 60 min): 30.0% | Released torasemide ([2]; time 90 min): 36.0% | Released torasemide ([2]; time 120 min): 40.7%
Compound: Cc1cccc(Nc2ccncc2S(=O)(=O)NC(=O)NC(C)C)c1 [novel polymorph V of torasemide, N-(1-methylethylaminocarbonyl)-4-(3-methyl-phenylamino)-3-pyridinesulfonamide]

Reference: patent US7241782B1, “Polymorph V of torasemide” (PLIVA, farmaceutska industrija, dionicko drustvo, priority 2000, dated 2007)
